Experimental data taken from patent US6110955A, “Metabolically stabilized oxyalkylene esters and uses thereof” (Beacon Laboratories, Inc., priority 1997, dated 2000).
“Also recorded” adds a separate entry of the source.

Experiments:
nuclear deacetylase(s) = settings: cited from earlier work
B16 melanoma = settings: cited from earlier work
cancer patients = settings: clinical trials; cited from earlier work
IMR-32 = test: Clonogenicity in soft agar (growth inhibition); format: cell-based, human
Protocol: (§1) Inhibition of cancer cell growth in agar culture--clonogenicity was tested using cell lines as follows:
(§2) Cells were harvested, washed in complete media, and counted.
(§3) After overnight culture, AB or α-methyl-4-(2-methylpropyl)-benzeneacetyloxymethyl butyrate was added at the indicated concentration. The control cells received media alone.

LA1-5S = test: Clonogenicity in soft agar (growth inhibition); format: cell-based, human
Protocol: as §1, §2, §3

NBAS-5 = test: Clonogenicity in soft agar (growth inhibition); format: cell-based, human
Protocol: as §1, §2, §3

NBL-S = test: Clonogenicity in soft agar (growth inhibition); format: cell-based, human
Protocol: as §1, §2, §3

NBL-W-N = test: Clonogenicity in soft agar (growth inhibition); format: cell-based, human
Protocol: as §1, §2, §3

NGP = test: Clonogenicity in soft agar (growth inhibition); format: cell-based, human
Protocol: as §1, §2, §3

SK-N-MC = test: Clonogenicity in soft agar (growth inhibition); format: cell-based, human
Protocol: as §1, §2, §3

SK-N-SH = test: Clonogenicity in soft agar (growth inhibition); format: cell-based, human
Protocol: as §1, §2, §3

SMS-KAN = test: Clonogenicity in soft agar (growth inhibition); format: cell-based, human
Protocol: as §1, §2, §3

SMS-KCN = test: Clonogenicity in soft agar (growth inhibition); format: cell-based, human
Protocol: as §1, §2, §3

[1] = system: human neuroblastoma cell lines; test: Clonogenicity across the neuroblastoma cell lines (summary); format: cell-based
Protocol: as §1, §2, §3

CFPAC = test: Inhibition of cancer cell growth, sulforhodamine B (SRB) method; format: cell-based; settings: Homo sapiens
Protocol: (§4) Inhibition of cancer cell growth was measured by the sulforhodamine B (SRB) method as described by Monks et al., J. Nat. Canc. Inst., (1991), 83: 757-766, incorporated herein in its entirety. The SRB assay is recognized by the National Institute for Cancer (NCI) as a reliable screen for anticancer drugs and is used by the NCI for this purpose. […] (FIGS. 3A-3D).

LOX IMVI = test: as above; format: cell-based; settings: Homo sapiens
Protocol: as §4

MCF7 = test: as above; format: cell-based; settings: Homo sapiens
Protocol: as §4

OVCAR-5 = test: as above; format: cell-based; settings: Homo sapiens
Protocol: as §4

[2] = system: human pancreatic, ovarian, breast carcinoma and melanoma cell lines; test: Inhibition of cancer cell growth, SRB method (summary over cell lines); format: cell-based; settings: compared with AB
Protocol: as §4

[3] = In vitro stability in human blood; format: in vitro ADME; settings: whole human blood, radiolabelled, read-out: calculated half time
Protocol: Radiolabelled Compound 1 (5 μCi) was added to 1 mL of whole human blood and allowed to stand for various times. The samples were quenched with acetonitrile and prepared as previously described.

[4] = system: human colon carcinoma, leukemia and retinoblastoma cell lines; settings: in vitro; cited from earlier work

## CCCC(=O)O [BA, Butyric acid]
Nuclear deacetylase(s)
  effect on nuclear deacetylase(s): inhibition of nuclear deacetylase(s), resulting in hyperacetylation of histones H3 and H4
B16 melanoma
  oncogene expression: decrease in the expression of c-myc and H-ras oncogenes in B16 melanoma
Cancer patients
  efficacy in cancer patients: minimal or transient efficacy

## CCCC(=O)OCOC(=O)C(C)c1ccc(CC(C)C)cc1 (stereo not drawn) [Compound 1, α-methyl-4-(2-methylpropyl)-benzeneacetyloxymethyl butyrate]
IMR-32; Homo sapiens, IMR-32
  IC50: 15 µM
  IC90: 32 µM
IMR-32; Homo sapiens, IMR-32, 10 μM, read-out: clones relative to media-treated control cultures
  activity at 10 µM: 71 ± 10%
IMR-32; Homo sapiens, IMR-32, 20 μM, read-out: clones relative to media-treated control cultures
  activity at 20 µM: 46 ± 8%
IMR-32; Homo sapiens, IMR-32, 50 μM, read-out: clones relative to media-treated control cultures
  activity at 50 µM: 3 ± 1%
IMR-32; Homo sapiens, IMR-32, 100 μM, read-out: clones relative to media-treated control cultures
  activity at 100 µM: 0%
IMR-32; Homo sapiens, IMR-32, 250 μM, read-out: clones relative to media-treated control cultures
  activity at 250 µM: 0%
IMR-32; IMR-32
  AB/Compound 1 (IC50 ratio): 59
  AB/Compound 1 (IC90 ratio): 111437
LA1-5S
  AB/Compound 1 (IC50 ratio): 56
  AB/Compound 1 (IC90 ratio): 31.8
LA1-5S; Homo sapiens
  IC50: 29 µM
  IC90: 84 µM
NBAS-5; Homo sapiens, NBAS-5
  IC50: 15 µM
  IC90: 30 µM
NBAS-5; Homo sapiens, NBAS-5, 10 μM, read-out: clones relative to media-treated control cultures
  activity at 10 µM: 76 ± 7%
NBAS-5; Homo sapiens, NBAS-5, 20 μM, read-out: clones relative to media-treated control cultures
  activity at 20 µM: 27 ± 15%
NBAS-5; Homo sapiens, NBAS-5, 50 μM, read-out: clones relative to media-treated control cultures
  activity at 50 µM: 3%
NBAS-5; Homo sapiens, NBAS-5, 100 μM, read-out: clones relative to media-treated control cultures
  activity at 100 µM: 0%
NBAS-5; Homo sapiens, NBAS-5, 250 μM, read-out: clones relative to media-treated control cultures
  activity at 250 µM: 0%
NBAS-5; NBAS-5
  AB/Compound 1 (IC50 ratio): 55.53
  AB/Compound 1 (IC90 ratio): 434
NBL-S
  AB/Compound 1 (IC50 ratio): 29.2
  AB/Compound 1 (IC90 ratio): 32.8
NBL-S; Homo sapiens
  IC50: 24 µM
  IC90: 61 µM
NBL-W-N
  AB/Compound 1 (IC50 ratio): 10.6
  AB/Compound 1 (IC90 ratio): 22.9
NBL-W-N; Homo sapiens
  IC50: 46 µM
  IC90: 134 µM
NGP
  AB/Compound 1 (IC50 ratio): 67.9
  AB/Compound 1 (IC90 ratio): 18.46
NGP; Homo sapiens
  IC50: 15 µM
  IC90: 87 µM
SK-N-MC
  AB/Compound 1 (IC50 ratio): 9
  AB/Compound 1 (IC90 ratio): 887
SK-N-MC; Homo sapiens
  IC50: 24 µM
  IC90: 148 µM
SK-N-SH
  AB/Compound 1 (IC50 ratio): 63.37
  AB/Compound 1 (IC90 ratio): 87
SK-N-SH; Homo sapiens
  IC50: 16 µM
  IC90: 39 µM
SK-N-SH; Homo sapiens, 10 μM, read-out: clones relative to media-treated control cultures
  activity at 10 µM: 66%
SK-N-SH; Homo sapiens, 20 μM, read-out: clones relative to media-treated control cultures
  activity at 20 µM: 50%
SK-N-SH; Homo sapiens, 50 μM, read-out: clones relative to media-treated control cultures
  activity at 50 µM: 5%
SK-N-SH; Homo sapiens, 100 μM, read-out: clones relative to media-treated control cultures
  activity at 100 µM: 1%
SK-N-SH; Homo sapiens, 250 μM, read-out: clones relative to media-treated control cultures
  activity at 250 µM: 0%
SMS-KAN
  AB/Compound 1 (IC50 ratio): 14.7
  AB/Compound 1 (IC90 ratio): 7.2
SMS-KAN; Homo sapiens
  IC50: 77 µM
  IC90: 289 µM
SMS-KCN
  AB/Compound 1 (IC50 ratio): 15.86
SMS-KCN; Homo sapiens
  IC50: 118 µM
[1]
  inhibition of clonogenicity (in words): dose-dependent manner
[1]; compared with AB
  sensitivity / potency relative to AB (in words): mostly an order of magnitude more sensitive; also recorded: significantly more potent tumor cell clonogenicity inhibitor than AB
[1]; over the cell lines
  ratio between the IC50 of AB/Compound 1, "maiden" value: 16
  ratio between the IC50 of AB/Compound 1, range: 7-63 fold
  ratio between the IC90 of AB/Compound 1, "maiden" value: 32
  ratio between the IC90 of AB/Compound 1, range: 7-434
CFPAC; dosage 0.03125 nM
  inhibition at 31.25 pM: 0%
CFPAC; dosage 0.06250 nM
  inhibition at 62.5 pM: 0.1%
CFPAC; dosage 0.12500 nM
  inhibition at 0.000125 µM: 1.1%
CFPAC; dosage 0.25000 nM
  inhibition at 0.00025 µM: 0%
CFPAC; dosage 0.50000 nM
  inhibition at 0.0005 µM: 93.3%
CFPAC; dosage 1.00000 nM
  inhibition at 0.001 µM: 94.9%
CFPAC; dosage 2.00000 nM
  inhibition at 0.002 µM: 96%
CFPAC; dosage 4.00000 nM
  inhibition at 0.004 µM: 97.4%
LOX IMVI; dosage 0.03125 nM
  inhibition at 31.25 pM: 0%
LOX IMVI; dosage 0.06250 nM
  inhibition at 62.5 pM: 0.1%
LOX IMVI; dosage 0.12500 nM
  inhibition at 0.000125 µM: 1.5%
LOX IMVI; dosage 0.25000 nM
  inhibition at 0.00025 µM: 0%
LOX IMVI; dosage 1.00000 nM
  inhibition at 0.001 µM: 94.9%
LOX IMVI; dosage 2.00000 nM
  inhibition at 0.002 µM: 96%
LOX IMVI; dosage 4.00000 nM
  inhibition at 0.004 µM: 97.4%
MCF7; MCF7, dosage 0.03125 nM
  inhibition at 31.25 pM: 0%
MCF7; MCF7, dosage 0.06250 nM
  inhibition at 62.5 pM: 0%
MCF7; MCF7, dosage 0.12500 nM
  inhibition at 0.000125 µM: 0%
MCF7; MCF7, dosage 0.25000 nM
  inhibition at 0.00025 µM: 1.1%
MCF7; MCF7, dosage 0.50000 nM
  inhibition at 0.0005 µM: 57.8%
MCF7; MCF7, dosage 1.00000 nM
  inhibition at 0.001 µM: 99.3%
MCF7; MCF7, dosage 2.00000 nM
  inhibition at 0.002 µM: 98.9%
MCF7; MCF7, dosage 4.00000 nM
  inhibition at 0.004 µM: 98.7%
OVCAR-5; OVCAR-5, dosage 0.03125 nM
  inhibition at 31.25 pM: 0%
OVCAR-5; OVCAR-5, dosage 0.06250 nM
  inhibition at 62.5 pM: 0.3%
OVCAR-5; OVCAR-5, dosage 0.12500 nM
  inhibition at 0.000125 µM: 0.5%
OVCAR-5; OVCAR-5, dosage 0.25000 nM
  inhibition at 0.00025 µM: 0%
OVCAR-5; OVCAR-5, dosage 0.50000 nM
  inhibition at 0.0005 µM: 0.9%
OVCAR-5; OVCAR-5, dosage 1.00000 nM
  inhibition at 0.001 µM: 39.7%
OVCAR-5; OVCAR-5, dosage 2.00000 nM
  inhibition at 0.002 µM: 99.8%
OVCAR-5; OVCAR-5, dosage 4.00000 nM
  inhibition at 0.004 µM: 95.1%
[2]
  greater activity than that of AB: at least 100 fold
[3]
  half-life: ~20.8 min

## CCCC(=O)[O-].[Na+] [SB, sodium butyrate]
[4]
  apoptosis: produce apoptosis in vitro in human colon carcinoma, leukemia and retinoblastoma cell lines
